The target in the test is T1, recombinant human progestin receptor (Homo sapiens, UniProt P06401).
T1 sequence (P06401 1-933): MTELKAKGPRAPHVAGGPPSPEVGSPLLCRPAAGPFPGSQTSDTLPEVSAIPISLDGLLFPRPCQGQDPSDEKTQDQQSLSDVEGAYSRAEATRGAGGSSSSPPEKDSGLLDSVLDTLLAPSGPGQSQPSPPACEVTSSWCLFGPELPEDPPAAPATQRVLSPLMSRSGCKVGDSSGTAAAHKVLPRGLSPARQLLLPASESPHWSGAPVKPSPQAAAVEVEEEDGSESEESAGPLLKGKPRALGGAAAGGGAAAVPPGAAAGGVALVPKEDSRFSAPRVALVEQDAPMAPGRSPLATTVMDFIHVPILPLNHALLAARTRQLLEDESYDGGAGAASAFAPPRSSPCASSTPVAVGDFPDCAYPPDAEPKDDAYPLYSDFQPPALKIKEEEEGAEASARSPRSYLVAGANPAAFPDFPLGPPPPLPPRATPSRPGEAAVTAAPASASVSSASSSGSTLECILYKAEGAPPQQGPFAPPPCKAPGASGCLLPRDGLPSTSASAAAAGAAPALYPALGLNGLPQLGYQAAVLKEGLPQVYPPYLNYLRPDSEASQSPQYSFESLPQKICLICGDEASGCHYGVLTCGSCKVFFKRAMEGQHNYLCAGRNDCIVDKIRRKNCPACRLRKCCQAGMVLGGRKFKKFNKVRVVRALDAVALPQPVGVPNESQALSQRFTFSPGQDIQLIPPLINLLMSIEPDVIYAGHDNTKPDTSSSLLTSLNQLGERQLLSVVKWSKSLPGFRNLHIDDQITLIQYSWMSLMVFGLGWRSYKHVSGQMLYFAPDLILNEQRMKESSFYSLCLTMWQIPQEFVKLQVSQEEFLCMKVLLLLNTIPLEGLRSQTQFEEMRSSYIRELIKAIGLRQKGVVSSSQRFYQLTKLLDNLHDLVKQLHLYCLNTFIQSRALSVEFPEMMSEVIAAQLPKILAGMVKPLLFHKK
Nature of the test: Relative binding affinity to recombinant human progestin receptor. From the text: Methods of determining affinity to the aforementioned receptors are known to the person skilled in the art. In this context, reference can be made, for example, to EP-A 808 845; Lacroix et al., Bioorganic & Medicinal Chemistry 1999 (7) 2329-2341; and D. Philibert et al., Gynecol Endocrinol 1999, 13, 316-26.
The relative binding affinities of (2S,17S)-17-(2-hydroxypropanoyl)-3-hydroxy-17-methyl-estra-1,3,5(10),9(11)-tetraene [compound of the general formula (IV)] to the recombinant human progestin receptor, mineral corticoid receptor, androgen receptor, glucocorticoid receptor and oestrogen receptor were determined experimentally (cf. D. Philibert et al., Gynecol Endocrinol 1999, 13, 316-26).

The values that follow come from patent publication US20090264387A1, “ESTRA-1,3,5(10)-TRIENE DERIVATIVES FOR CONTRACEPTION” (GRUNENTHAL GMBH, priority 2008, published 2009).

Molecules are shown by their SMILES.

For `C[C@H](O)C(=O)[C@@]1(C)CC[C@H]2[C@@H]3CCc4cc(O)ccc4C3=CC[C@@]21C` [(2S,17S)-17-(2-hydroxypropanoyl)-3-hydroxy-17-methylestra-1,3,5(10),9(11)-tetraene], the “affinity to the progestin receptor (relative binding affinity)” value (recombinant human receptor, progesterone reference standard) is on record as “clear affinity”. In addition, the “selectivity for the progestin receptor” value (versus other steroid receptors (mineral corticoid, androgen, glucocorticoid, oestrogen), quotient of relative binding affinities) was “high selectivity”.
